Measurements as given in publication PMC8508980, “Design, Synthesis and Anticancer Profile of New 4-(1H-benzo[d]imidazol-1-yl)pyrimidin-2-amine-Linked Sulfonamide Derivatives with V600EBRAF Inhibitory Effect” (International Journal of Molecular Sciences, 2021).

Assays:
Experiment in all cases: NCI 60 cell line screen
Type in all cases: cell-based
[1] = system: A498; conditions: Homo sapiens; A498, Renal Cancer; read-out: Percent growth
Experimental: (§1) Anticancer profiling over a panel of 60 cancer cell lines was carried out at the National Cancer Institute (NCI), Bethesda, Maryland, USA, https://dtp.cancer.gov/discovery_development/nci-60/methodology.htm (Last visit 22 September 2021), using the standard procedure (detailed procedure is located in the Supplementary Information page 50 s).
(§2) NCI standard procedure for 60 cell lines assay
(§3) The human tumor cell lines of the cancer screening panel are grown in RPMI 1640 mediu m containing 5% fetal bovine serum and 2 mM L-glutamine. For a typical screening experiment, cells are inoculated into 96 well microtiter plates in 100 μL at plating densities ranging from 5,000 to 40,000 cells/well depending on the doubling time of individual cell lines. After cell inoculation, the microtiter plates are incubated at 37° C, 5 % CO2, 95 % air and 100 % relative humidity for 24 h prior to addition of experimental drugs.
(§4) After 24 h, two plates of each cell line are fixed in situ with TCA, to represent a measurement of the cell population for each cell line at the time of drug addition (Tz). Experimental drugs are solubilized in dimethyl sulfoxide at 400-fold the desired final maximum test concentration (10 µM) and stored frozen prior to use. At the time of drug addition, an aliquot of frozen concentrate is thawed and diluted to twice the desired final maximum test concentration with co mp lete medium containing 50 μg/ml gentamicin. Additional four, 10-fold or ½ log serial dilutions are made to provide a total of five drug concentrations plus control. Aliquots of 100 μl of these different drug dilutions are added to the appropriate microtiter wells already containing 100 μl of medium, resulting in the required final drug concentrations.
(§5) Following drug addition, the plates are incubated for an additional 48 h at 37°C, 5 % CO2, 95 % air, and 100 % relative humidity. For adherent cells, the assay is terminated by the addition of cold TCA. Cells are fixed in situ by the gentle addition of 50 μl of cold 50 % (w/v) TCA (final concentration, 10 % TCA) and incubated for 60 minutes at 4°C. The supernatant is discarded, and the plates are washed five times with tap water and air dried. Sulforhodamine B (SRB) solution (100 μl) at 0.4 % (w/v) in 1 % acetic acid is added to each well, and plates are incubated for 10 minutes at room temperature. After staining, unbound dye is removed by washing five times with 1 % acetic acid and the plates are air dried. Bound stain is subsequently solubilized with 10 mM trizma base, and the absorbance is read on an automated plate reader at a wavelength of 515 nm. For suspension cells, the methodology is the same except that the assay is terminated by fixing settled cells at the bottom of the wells by g ently adding 50 μl of 80 % TCA (final concentration, 16 % TCA). Using the seven absorbance measurements [time zero, (Tz), control growth, (C), and test growth in the presence of drug at the five concentration levels (Ti)], the percentage growth is calculated at each of the drug concentrations levels. Percentage growth inhibition is calculated as:
(§6) [(Ti-Tz)/(C-Tz)] x 100 for concentrations for which Ti>/=Tz
(§7) [(Ti-Tz)/Tz] x 100 for concentrations for which Ti<Tz.
(§8) Three dose response parameters are calculated for each experimental agent. Growth inhibition of […]
(§9) resulting in a 50% reduction in the net protein increase (as measured by SRB staining) in control cells during the drug incubation. The drug concentration resulting in total growth inhibition […]
(§10) (TGI) is calculated from Ti = Tz.

[2] = system: A549/ATCC; conditions: Homo sapiens, Non-Small Cell Lung Cancer, read-out: Percent growth
Experimental: as §1, §2, §3, §4, §5, §6, §7, §8, §9, §10

[3] = system: ACHN; conditions: Homo sapiens, Renal Cancer, read-out: Percent growth
Experimental: as §1, §2, §3, §4, §5, §6, §7, §8, §9, §10

[4] = system: BT-549; conditions: Homo sapiens; BT-549, Breast Cancer; read-out: Percent growth
Experimental: as §1, §2, §3, §4, §5, §6, §7, §8, §9, §10

[5] = system: COLO 205; conditions: Homo sapiens; COLO 205, Colon Cancer; read-out: Percent growth
Experimental: as §1, §2, §3, §4, §5, §6, §7, §8, §9, §10

[6] = system: DU-145; conditions: Homo sapiens; DU-145, Prostate Cancer; read-out: Percent growth
Experimental: as §1, §2, §3, §4, §5, §6, §7, §8, §9, §10

[7] = system: HCC-2998; conditions: Homo sapiens; HCC-2998, Colon Cancer; read-out: Percent growth
Experimental: as §1, §2, §3, §4, §5, §6, §7, §8, §9, §10

[8] = system: HCT-116; conditions: Homo sapiens; HCT-116, Colon Cancer; read-out: Percent growth
Experimental: as §1, §2, §3, §4, §5, §6, §7, §8, §9, §10

[9] = system: LOX IMVI; conditions: Homo sapiens, Melanoma, read-out: Percent growth
Experimental: as §1, §2, §3, §4, §5, §6, §7, §8, §9, §10

[10] = system: MALME-3M; conditions: Homo sapiens, Melanoma, read-out: Percent growth
Experimental: as §1, §2, §3, §4, §5, §6, §7, §8, §9, §10

[11] = system: MCF7; conditions: Homo sapiens; MCF7, Breast Cancer; read-out: Percent growth
Experimental: as §1, §2, §3, §4, §5, §6, §7, §8, §9, §10

[12] = system: MDA-MB-231/ATCC; conditions: Homo sapiens, Breast Cancer, read-out: Percent growth
Experimental: as §1, §2, §3, §4, §5, §6, §7, §8, §9, §10

[13] = system: MDA-MB-435; conditions: Homo sapiens; MDA-MB-435, Melanoma; read-out: Percent growth
Experimental: as §1, §2, §3, §4, §5, §6, §7, §8, §9, §10

[14] = system: NCI-H322M; conditions: Homo sapiens, Non-Small Cell Lung Cancer, read-out: Percent growth
Experimental: as §1, §2, §3, §4, §5, §6, §7, §8, §9, §10

[15] = system: OVCAR-3; conditions: Homo sapiens; OVCAR-3, Ovarian Cancer; read-out: Percent growth
Experimental: as §1, §2, §3, §4, §5, §6, §7, §8, §9, §10

[16] = system: OVCAR-5; conditions: Homo sapiens; OVCAR-5, Ovarian Cancer; read-out: Percent growth
Experimental: as §1, §2, §3, §4, §5, §6, §7, §8, §9, §10

[17] = system: SF-268; conditions: Homo sapiens; SF-268, CNS-Cancer; read-out: Percent growth
Experimental: as §1, §2, §3, §4, §5, §6, §7, §8, §9, §10

[18] = system: SF-539; conditions: Homo sapiens; SF-539, CNS-Cancer; read-out: Percent growth
Experimental: as §1, §2, §3, §4, §5, §6, §7, §8, §9, §10

[19] = system: SK-MEL-2; conditions: Homo sapiens; SK-MEL-2, Melanoma; read-out: Percent growth
Experimental: as §1, §2, §3, §4, §5, §6, §7, §8, §9, §10

[20] = system: SK-OV-3; conditions: Homo sapiens; SK-OV-3, Ovarian Cancer; read-out: Percent growth
Experimental: as §1, §2, §3, §4, §5, §6, §7, §8, §9, §10

[21] = system: SN12C; conditions: Homo sapiens, Renal Cancer, read-out: Percent growth
Experimental: as §1, §2, §3, §4, §5, §6, §7, §8, §9, §10

[22] = system: SW-620; conditions: Homo sapiens; SW-620, Colon Cancer; read-out: Percent growth
Experimental: as §1, §2, §3, §4, §5, §6, §7, §8, §9, §10

Work on `O=S(=O)(NCCNc1nccc(-n2cnc3ccccc32)n1)c1ccc(Br)cc1` [12d, N-(2-((4-(1H-benzo [d]imidazol-1-yl)pyrimidin-2-yl)amino)ethyl)-4-bromobenzenesulfonamide] yielded an activity at 10 µM [1] of 76.3%, an activity at 10 µM [2] of 100% and an activity at 10 µM [3] of 93.6%. It also gave an activity at 10 µM [4] of 115%, an activity at 10 µM [5] of 107% and an activity at 10 µM [6] of 99.9%. For the same molecule, the activity at 10 µM [7] was 103%, the activity at 10 µM [8] was 99.8% and the activity at 10 µM [9] was 99.1%. For the same molecule, the activity at 10 µM [10] was 103%, the activity at 10 µM [11] was 78.4% and the activity at 10 µM [12] was 88.2%. The activity at 10 µM [13] was 108%, the activity at 10 µM [14] was 107% and the activity at 10 µM [15] was 103%. It also gave an activity at 10 µM [16] of 94%, an activity at 10 µM [17] of 91.2% and an activity at 10 µM [18] of 96.2%. The activity at 10 µM [19] was 108%, the activity at 10 µM [20] was 99.9% and the activity at 10 µM [21] was 91.5%. The activity at 10 µM [22] was 110%.

Work on `COc1ccc(S(=O)(=O)NCCNc2nccc(-n3cnc4ccccc43)n2)cc1` [12f, N-(2-((4-(1H-benzo [d]imidazol-1-yl)pyrimidin-2-yl)amino)ethyl)-4-methoxy benzenesulfonamide] yielded an activity at 10 µM [1] of 82.9%, an activity at 10 µM [2] of 94.6% and an activity at 10 µM [3] of 97.1%. For the same molecule, the activity at 10 µM [4] was 97.8%, the activity at 10 µM [5] was 99.8% and the activity at 10 µM [6] was 99.9%. The activity at 10 µM [7] was 99.7%, the activity at 10 µM [8] was 98% and the activity at 10 µM [9] was 91.7%. It also gave an activity at 10 µM [10] of 91.7%, an activity at 10 µM [11] of 86.2% and an activity at 10 µM [12] of 92.1%. The activity at 10 µM [13] was 96.6%, the activity at 10 µM [14] was 92.6% and the activity at 10 µM [15] was 103%. For the same molecule, the activity at 10 µM [16] was 93.9%, the activity at 10 µM [17] was 86.7% and the activity at 10 µM [18] was 96.2%. For the same molecule, the activity at 10 µM [19] was 106%, the activity at 10 µM [20] was 97.5% and the activity at 10 µM [21] was 88.5%. For the same molecule, the activity at 10 µM [22] was 103%.

Work on `O=S(=O)(NCCCNc1nccc(-n2cnc3ccccc32)n1)c1ccccc1` [12h, N-(3-((4-(1H-benzo [d]imidazol-1-yl)pyrimidin-2-yl)amino)propyl)benzenesulfonamide] yielded an activity at 10 µM [1] of 78.4%, an activity at 10 µM [2] of 97.6% and an activity at 10 µM [3] of 95.7%. The activity at 10 µM [4] was 96.5%, the activity at 10 µM [5] was 102% and the activity at 10 µM [6] was 99.2%. The activity at 10 µM [7] was 107%, the activity at 10 µM [8] was 90.3% and the activity at 10 µM [9] was 91.7%. It also gave an activity at 10 µM [10] of 108%, an activity at 10 µM [11] of 87.7% and an activity at 10 µM [12] of 92.4%. It also gave an activity at 10 µM [13] of 95.5%, an activity at 10 µM [14] of 109% and an activity at 10 µM [15] of 106%. The activity at 10 µM [16] was 99.1%, the activity at 10 µM [17] was 91.7% and the activity at 10 µM [18] was 89.4%. The activity at 10 µM [19] was 108%, the activity at 10 µM [20] was 105% and the activity at 10 µM [21] was 94.3%. The activity at 10 µM [22] was 107%.
